Reference: US5395947A, “Platinum(II) complex and processes for preparing the same” (Sunkyong Industries, Ltd., priority 1991, dated 1995)

Columns and labels:
[1] = system: murine leukemia L1210 cells; experiment: Growth inhibition test on cultured murine leukemia L1210 cells; type: cell-based; details: 48 hours, 37° C., Trypan blue viability
Method in brief: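 Read-out is Trypan blue (0.17%) viability versus compound-free controls. Cells, 1×10^5, were cultured 48 h at 37° C under 5% CO2 in RPMI 1640/10% FCS containing various compound concentrations.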

murine leukemia L1210 = experiment: Antitumor activity test on murine leukemia L1210 in vivo; parameters: species or system male BDF1 mice; details: days 1, 5, 9
Method in brief: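 Male BDF1 mice (6 weeks, 21±3 g; n=7) received 1×10^6 leukemia cells into the peritoneum on day 0, then test compound suspended or dissolved in 0.5% CMC i.p. on days 1, 5, 9. Activity expressed as T/C %, mean survival treated versus 0.5% CMC-injected controls.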

Test for nephrotoxicity = type: in vivo, male ICR mice; details: 18.8 mg/kg i.p. once
Experimental: 4. Test for nephrotoxicity
The compounds of the present invention were dissolved or suspended in 0.5% CMC solution(in water) and were administered intraperitoneally one time to 8-week-old male ICR mice weighing 30±3 g. Each treatment and control groups consisted of six mice.
The administration amount of the test compound was 1.5 times the optimum dose obtained in Table 2, or more. On days 1, 4 and 8 after administration, their blood was collected under ether anesthesia for measurement of blood urea nitrogen concentration (BUN value) and creatinine concentration.
A pair of kidneys were taken and, after immediate weighing, were stored in a 10% neutral buffered formalin solution. The body weight ratio shown in Table 5 is a ratio of the body weight measured on days 1, 4 and 8 from the administration of the compound to the body weight measured on the administration day.

ICR mice = experiment: Acute toxicity test; type: in vivo; parameters: Lethality: unit not given here; details: for Lethality: 10080 min
Method in brief: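 Single i.p. administration to ICR mice (7 weeks old, both sexes, n=6/group); appearance and mortality logged over 7 days, dead animals autopsied for gross pathology.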

[2] = Test for water solubility; type: physicochemical; details: water
Text: 3. Test for water solubility
A standard plot of UV absorbance(220 nm) vs. concentration was made; and employed to determine water-solubility.
The mixture was then passed through a 0.45 micron disposable membrane filter before dilution and UV measurement.

## CC(C)C1OC(CN)C(CN)O1.CC1[O][Pt][O]C1=O [Example 19, (L-lactato-O,O')[(4R,5R)-4,5-bis(aminomethyl)-2-isopropyl-1,3-dioxolane]platinum(II)]
[1]
  IC50 (concentration required for 50% inhibition of growth): 0.29 µg/mL
Murine leukemia L1210; 12.5 mg/kg i.p.
  T/C (%): 208%
Murine leukemia L1210; 25 mg/kg i.p.
  T/C (%): 232%
Murine leukemia L1210; 50 mg/kg i.p.
  T/C (%): toxic
Test for nephrotoxicity
  BUN, 1st day: 38.6 mg/100 ml
  BUN, 4th day: 27.9 mg/100 ml
  BUN, 8th day: 50.7 mg/100 ml
ICR mice; female, 41.3 mg/kg i.p.
  Number of dead mice for 7 days: 2/6
  Number of dead mice, 1st day: 0/6
  Number of dead mice, 5th day: 1/6
  Number of dead mice, 6th day: 1/5
  Lethality: 33.3
ICR mice; female, 54.9 mg/kg i.p.
  Number of dead mice for 7 days: 4/6
  Number of dead mice, 1st day: 0/6
  Number of dead mice, 3rd day: 1/6
  Number of dead mice, 4th day: 2/5
  Number of dead mice, 5th day: 1/3
  Lethality: 66.7
ICR mice; female, 71.4 mg/kg i.p.
  Number of dead mice for 7 days: 5/6
  Number of dead mice, 1st day: 0/6
  Number of dead mice, 4th day: 1/6
  Number of dead mice, 5th day: 3/5
  Number of dead mice, 6th day: 1/2
  Lethality: 83.3
ICR mice; female, 91.8 mg/kg i.p.
  Number of dead mice for 7 days: 6/6
  Number of dead mice, 1st day: 0/6
  Number of dead mice, 2nd day: 1/6
  Number of dead mice, 3rd day: 2/5
  Number of dead mice, 4th day: 2/3
  Number of dead mice, 5th day: 1/1
  Lethality: 100.0
ICR mice; male, 41.3 mg/kg i.p.
  Number of dead mice for 7 days: 3/6
  Number of dead mice, 1st day: 0/6
  Number of dead mice, 5th day: 1/6
  Number of dead mice, 6th day: 2/5
  Lethality: 50.0
ICR mice; male, 54.9 mg/kg i.p.
  Number of dead mice for 7 days: 4/6
  Number of dead mice, 1st day: 0/6
  Number of dead mice, 4th day: 1/6
  Number of dead mice, 5th day: 2/5
  Number of dead mice, 6th day: 1/3
  Lethality: 66.7
ICR mice; male, 71.4 mg/kg i.p.
  Number of dead mice for 7 days: 5/6
  Number of dead mice, 1st day: 0/6
  Number of dead mice, 4th day: 1/6
  Number of dead mice, 5th day: 2/5
  Number of dead mice, 6th day: 2/3
  Lethality: 83.7
ICR mice; male, 91.8 mg/kg i.p.
  Number of dead mice for 7 days: 6/6
  Number of dead mice, 1st day: 0/6
  Number of dead mice, 2nd day: 1/6
  Number of dead mice, 3rd day: 4/5
  Number of dead mice, 5th day: 1/1
  Lethality: 100.0

## CC1(C)OC2C[NH2+][Pt-2]3([NH2+]CC2O1)[O]C(=O)C1(CCC1)C(=O)[O]3 [Example 26, cis-cyclobutane-1,1-dicarboxylato[(4R,5R)-4,5-bis(aminomethyl)-2,2-dimethyl-1,3-dioxolane]platinum(II)]
[1]
  IC50 (concentration required for 50% inhibition of growth): 0.65 µg/mL
Murine leukemia L1210; 6.2 mg/kg i.p.
  T/C (%): 124%
Murine leukemia L1210; 12.5 mg/kg i.p.
  T/C (%): 170%
Murine leukemia L1210; 25 mg/kg i.p.
  T/C (%): 217%
Murine leukemia L1210; 50 mg/kg i.p.
  T/C (%): 283%
Murine leukemia L1210; 100 mg/kg i.p.
  T/C (%): 317%
[2]
  Solubility in water: 2.0 mg/mL
ICR mice; female, 160 mg/kg i.p.
  Number of dead mice for 7 days: 0/6
  Number of dead mice, 1st day: 0/6
ICR mice; female, 208 mg/kg i.p.
  Number of dead mice for 7 days: 0/6
  Number of dead mice, 1st day: 0/6
ICR mice; female, 270 mg/kg i.p.
  Number of dead mice for 7 days: 1/6
  Number of dead mice, 1st day: 0/6
  Number of dead mice, 5th day: 1/6
  Lethality: 16.7
ICR mice; female, 352 mg/kg i.p.
  Number of dead mice for 7 days: 4/6
  Number of dead mice, 1st day: 0/6
  Number of dead mice, 3rd day: 2/6
  Number of dead mice, 4th day: 2/4
  Lethality: 66.7
ICR mice; female, 457 mg/kg i.p.
  Number of dead mice for 7 days: 6/6
  Number of dead mice, 1st day: 0/6
  Number of dead mice, 2nd day: 4/6
  Number of dead mice, 3rd day: 2/2
  Lethality: 100.0
ICR mice; male, 160 mg/kg i.p.
  Number of dead mice for 7 days: 0/6
  Number of dead mice, 1st day: 0/6
ICR mice; male, 208 mg/kg i.p.
  Number of dead mice for 7 days: 1/6
  Number of dead mice, 1st day: 0/6
  Number of dead mice, 3rd day: 1/6
  Lethality: 16.7
ICR mice; male, 270 mg/kg i.p.
  Number of dead mice for 7 days: 2/6
  Number of dead mice, 1st day: 0/6
  Number of dead mice, 4th day: 2/6
  Lethality: 33.3
ICR mice; male, 352 mg/kg i.p.
  Number of dead mice for 7 days: 4/6
  Number of dead mice, 1st day: 0/6
  Number of dead mice, 2nd day: 1/6
  Number of dead mice, 3rd day: 3/5
  Lethality: 66.7
ICR mice; male, 457 mg/kg i.p.
  Number of dead mice for 7 days: 6/6
  Number of dead mice, 1st day: 0/6
  Number of dead mice, 2nd day: 2/6
  Number of dead mice, 3rd day: 4/4
  Lethality: 100.0
